Results on five compounds are retold here after US20250019381A1, “PROCESS FOR THE […] OF 6-((3S,4S)-4-METHYL-1-(PYRIMIDIN-2-[…])PYRROLIDIN-3-YL)-3-(TETRAHYDROPYRAN-4-YL-7H-IMIDAZO[1,5-a]PYRAZIN-8-ONE” (Cardurion Pharmaceuticals, Inc., priority 2017, published 2025).

The structures appear in SMILES notation.

As a reminder, the IC50 is the midpoint of a concentration-inhibition curve. The low end stands for inhibition by little substance, the high end for a need for much substance.

In one data set the test system is PDE1. Kind of data set: PDE1 inhibition IC50. The class given is biochemical.
The nature of data set [1]: Blood Brain Barrier penetration: plasma and brain concentration. The class given is in vivo.
Data set [2] in a line: Stability study of drug substance in polyethylene/aluminum pouches. The class given is physicochemical. The following applies: solid, ambient temperature and 40° C.-45° C. (no humidity control), 3-month period. The method, then: A stability study has been completed on Compound P3.1. Samples of Compound P3.1 were aliquoted into double-walled polyethylene pouches, which were tied off and then heat-scaled in an aluminum pouch. Samples were stored at ambient temperature and at 40° C.-45° C. (no humidity control) with testing performed over a 3-month period.

The next data set deals with PDE9 (Homo sapiens (Human), UniProt O76083). The class given is biochemical.
Chain of PDE9 (O76083 whole entry): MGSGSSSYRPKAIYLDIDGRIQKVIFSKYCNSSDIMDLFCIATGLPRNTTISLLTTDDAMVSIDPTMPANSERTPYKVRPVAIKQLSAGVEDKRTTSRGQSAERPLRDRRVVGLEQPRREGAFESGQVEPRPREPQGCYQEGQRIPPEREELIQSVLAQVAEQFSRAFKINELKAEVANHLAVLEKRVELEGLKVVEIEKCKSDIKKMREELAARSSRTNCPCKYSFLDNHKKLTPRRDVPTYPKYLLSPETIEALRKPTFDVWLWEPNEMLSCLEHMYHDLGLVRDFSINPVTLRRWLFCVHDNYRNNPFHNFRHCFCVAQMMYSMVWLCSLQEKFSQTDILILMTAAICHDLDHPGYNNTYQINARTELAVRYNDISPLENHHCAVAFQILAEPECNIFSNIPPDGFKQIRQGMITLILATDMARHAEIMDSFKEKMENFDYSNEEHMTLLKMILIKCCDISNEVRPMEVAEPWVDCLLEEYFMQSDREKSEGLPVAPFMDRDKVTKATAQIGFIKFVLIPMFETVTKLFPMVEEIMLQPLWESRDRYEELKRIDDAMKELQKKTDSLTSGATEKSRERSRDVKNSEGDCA
The nature of data set [3]: Stability study of solution in purified water. The data set is classed as physicochemical. As to conditions: approximately 40 mg/mL in purified water, refrigerated and ambient, 8 days. The method, then:
In another stability study, Compound P3.1 was dissolved at approximately 40 mg/mL of purified water and evaluated for purity over a period of 8 days. Samples were stored at both refrigerated and ambient conditions, and tested at T=0, Day 2, and Day 8.

For `C[C@@H]1CN(Cc2ncccn2)C[C@H]1c1nc2c(cnn2C2CCOCC2)c(=O)[nH]1` (relative stereo), the midpoint of inhibition in the data set on PDE1, the IC50, lay at 2500 nM.

For `O=c1[nH]c(CN2CC(Oc3ccncc3)C2)cn2c(-c3ccc(F)cc3)ncc12` [Compound P1], in data set [1] (30 min), the “Brain/Plasma ratio after 30 minutes” value is 0.06. The “Brain/Plasma ratio after 120 minutes” value in data set [1] (120 min) is recorded as 0.08.

With `O=c1[nH]c(CN2CC(Oc3cccnc3)C2)cn2c(C3CCOCC3)ncc12` [Compound P2], the “Brain concentration after 30 minutes” value in data set [1] (30 min) was “Below”. Further, in data set [1] (120 min), the “Brain concentration after 120 minutes” value is on record as “Below”.

Regarding `C[C@@H]1CN(Cc2ncccn2)C[C@H]1c1cn2c(C3CCOCC3)ncc2c(=O)[nH]1` [Compound P3.1, (3S,4S)-6-(4-methyl-1-pyrimidin-2-ylmethyl-pyrrolidin-3-yl)-3-(tetrahydro-pyran-4-yl)-7H-imidazo[1,5-a]pyrazin-8-one], the IC50 in the data set with PDE1 was determined as 3000 nM; against PDE9, 10 nM. The “Brain concentration after 30 minutes” value in data set [1] (30 min) is 30 min.: 67 ng/mL. In addition, in data set [1] (120 min), the “Brain concentration after 120 minutes” value is 120 min.: 7 ng/mL. The “Plasma concentration after 30 minutes” value in data set [1] (plasma, 30 min) is 30 min.: 1620 ng/mL. Further, the “Plasma concentration after 120 minutes” value in data set [1] (plasma, 120 min) is listed as 120 min.: 226 ng/mL. In addition, in data set [2], the “Changes to appearance or purity of the material on storage” value is reported as “no changes to appearance or purity”. In data set [3], the “Change to purity of the compound or appearance of the solution” value is given as “No significant change”.

As to `O=c1[nH]c(CN2CC(OCc3ccc(F)cc3)C2)nn2c(C3CCOCC3)ncc12` [Compound P4], in data set [1] (plasma, 120 min), the “Plasma concentration after 120 minutes” value is listed as 120 min.: 352 ng/mL.
